Source: US20160159861A1, “APJ Receptor Compounds” (priority 2013, published 2016)
Where two headings read alike, the source gives them in different places. Peptide text beside a SMILES is read from it.

What was measured:
[1] = test system: rat peritoneal cells; experiment: Ex vivo histamine release assay in rat peritoneal cells (vs. Compound 48/80); assay type: cell-based
Source text: More desirable pharmacological tolerability can include a decrease in an undesirable side effect (e.g., histamine release, an indicator of mast cell degranulation) without a significant loss in activity of the compound.
Screening of the variant G protein receptor compounds against a control compound for histamine release can be done following standard assays. The standard assay can include comparison to a control compound known to elicit a histamine response (e.g., 48/80 having CAS No. 94724-12-6). Such an assay using rat peritoneal cells is described herein for the APJ compounds.
Test compounds were assayed in the ex vivo histamine release assay using a 3-point dose response. Concentrations of total histamine contained in the cells is used to correct for variability in the numbers of mast cells in the lavage per well.
Resident peritoneal cells were harvested from naïve Sprague Dawley rats (male 200-300 gr, Charles River). Rats were euthanized by CO2 asphyxiation and a skin incision was made along the middle-line of the abdomen. Thirty milliliters of HBSS (HyClone, cat#SH 30268.01) containing 20 mM HEPES and 0.2% BSA (heretofore Assay Buffer) were injected intraperitoneally using a 30 mL syringe with the attached 18 gauge needle. The abdomen was gently lavaged for 1-2 min and 7-10 milliliters of the peritoneal lavage were carefully aspirated. Cell count in the peritoneal lavage was determined using Cellometer Auto T4 (Nexcelom Bioscience). The peritoneal cell count was adjusted to […] cells/mL in Assay Buffer. Rat peritoneal cells were kept at room temperature before and during the assay.
For the 10-point assay, 3-fold serial dilutions were prepared for each test compound in 100% DMSO in 96-well plates (Greiner Bio One, Ref#651261)—from 100 μM down to […]. For the 3-point assay, 10-fold serial dilutions were prepared in 100% DMSO at 100 μM, 10 μM and 1 μM concentrations. From this plate, 5 μL of compound were transferred to a new plate containing 45 μL Assay Buffer to generate a compound plate with 10× final concentrations in 10% DMSO with Assay Buffer. In the final plates, column 11 contained 1% DMSO for the low-histamine-releasing control.
Suspensions of the rat peritoneal cells (90 μL of 2.75×10^5 cells/mL; →25,000 cells per well) were introduced into each well of a new 96-well microtiter plate (Greiner Bio One, Ref#651261) and 10 μL aliquots of the serially diluted compounds were transferred to the cells in each well. The microtiter plate was incubated for 30 min at room temperature. Following incubation cells were spun down (500 rpm, 7 min) and supernatants were collected for further analysis. Supernatants were diluted 6 times with the assay buffer (15 μL to 75 μL, for 90 μL total) and released histamine content was determined using HTRF® Histamine assay kit (CisBio, cat#62HTMPEB). To measure the total histamine in each well, cells were lysed by addition of 15 μL 5% TritonX-100 to each well followed by incubation for 15 minutes. The plates were then spun at 3000 rpm for 5 minutes, and 10 μL of supernatant were diluted 9-fold in assay buffer (10 μL to 80 μL for 90 μL total) to make the “total” histamine plate. Histamine content was measured as described above for the “released” histamine values.
The standard positive control was Compound 48/80 (Enzo Life Sciences), a oligomeric polymer mixture produced by the condensation of N-methyl-p-methoxyphenethylamine with formaldehyde. The trimer is the most abundant in the mixture Compound 48/80 is used to promote mast cell degranulation and activates G proteins by a mechanism analogous to that of mastoparan. […] See references: T. Higashijima et al., J. Biol., Chem., 265 14176 (1990); M. Mousli et al., FEBS Lett., 259 260 (1990); K. Gietzen et al., Biochim. Biophys. Acta, 736 109 (1983); K. Gietzen, Biochem. J., 1983 216 611 and C. Bronner et al., Biochim. Biophys. Acta, 920 301(1987).

[2] = target: T1, human APJ receptor (hAPJ) (Homo sapiens, UniProt P35414); experiment: HTRF cAMP assay: inhibition of NKH477-stimulated cAMP in HEK cells stably expressing hAPJ; assay type: cell-based; settings: for Emax: HEK293, read-out: % IA, bound stated; for % IA (cAMP inhibition, hAPJ HEK): intrinsic activity; for Ranking: composite class of EC50 (hAPJ), % IA and % histamine or formal (+) charge; for inhibition of NKH477-stimulated increase in cAMP, dose dependent: concentration response curves, FIGS. 1 and 2, HEK cells stably expressing APJ
T1 construct: expressed in transfected cells
T1 sequence (P35414 1-380): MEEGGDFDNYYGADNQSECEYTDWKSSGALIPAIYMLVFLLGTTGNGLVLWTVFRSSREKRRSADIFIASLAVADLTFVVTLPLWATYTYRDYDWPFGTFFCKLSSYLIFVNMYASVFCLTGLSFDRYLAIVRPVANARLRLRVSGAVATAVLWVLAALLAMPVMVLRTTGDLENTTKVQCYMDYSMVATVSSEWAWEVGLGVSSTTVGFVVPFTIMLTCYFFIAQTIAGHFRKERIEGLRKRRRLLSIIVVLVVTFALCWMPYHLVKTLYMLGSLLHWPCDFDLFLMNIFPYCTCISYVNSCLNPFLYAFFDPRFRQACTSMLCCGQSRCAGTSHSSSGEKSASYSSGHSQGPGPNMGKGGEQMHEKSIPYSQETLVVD
Procedure, shortened: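 HEK cells stably expressing hAPJ, induced with 1 nG/mL doxycycline and seeded overnight at 40 k/well. cAMP read by HTRF competitive immunoassay using cryptate-labeled anti-cAMP antibody and d2-labeled cAMP.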

[3] = HTRF cAMP Assay, per data of Table 6
[4] = HTRF cAMP Assay, per data of Table 6, read-out: EC50 (hAPJ), inhibition of cAMP production, bound stated
[5] = Table 6, hAPJ HEK cells, NKH477-stimulated cAMP, read-out: EC50 (cAMP inhibition, hAPJ HEK)

Row | SMILES | Histamine (% vs. 48/80) [1] | Emax [2, 3] | EC50 [2, 4] | EC50 [2, 5] | % IA (cAMP inhibition, hAPJ HEK) ([2]; Table 6, hAPJ HEK cells) | Ranking [2] | inhibition of NKH477-stimulated increase in cAMP, dose dependent [2]
1 | CCCCCCCCCCCCCCCC(=O)N[C@H](C(=O)N[C@H](C(=O)N[C@@H](Cc1ccccc1)C(=O)N[C@@H](CCC(N)=O)C(=O)N[C@@H](CO)C(=O)N[C@@H](CCC(=O)O)C(=O)N[C@H](CCCCN)C(=O)N[C@@H](CCCNC(=N)N)C(=O)N[C@@H](CCCNC(=N)N)C(=O)N[C@@H](CO)C(=O)N[C@@H](C)C(=O)N[C@@H](CC(=O)O)C(=O)N[C@@H](Cc1ccccc1)C(=O)N[C@H](C(N)=O)[C@@H](C)CC)C(C)C)[C@@H](C)O [Compound 16, TVFQSEkRRSADFI] (HELM PEPTIDE1{[CCCCCCCCCCCCCCCC(=O)[*:2]].T.V.F.Q.S.E.[dK].R.R.S.A.D.F.I.[am]}$$$$V2.0) | 21% | 50 to 79% | 25 to 50 nM | 10 nM | 78% | *** (EC50 25-50 nM (hAPJ), % IA 50-79% and either % histamine≦35% or formal (+) charge≦1) | 
2 | CCCCCCCCCCCCCCCC(=O)N[C@@H](CC(=O)O)C(=O)N[C@H](C(=O)N[C@@H](Cc1ccccc1)C(=O)N[C@@H](CCC(N)=O)C(=O)N[C@@H](CO)C(=O)N[C@@H](CCC(=O)O)C(=O)N[C@H](CCCCN)C(=O)N[C@@H](CCCNC(=N)N)C(=O)N[C@@H](CCCNC(=N)N)C(=O)N[C@@H](CO)C(=O)N[C@@H](C)C(=O)N[C@@H](CC(=O)O)C(=O)N[C@@H](CCC(N)=O)C(=O)N[C@@H](Cc1ccccc1)C(=O)N[C@H](C(N)=O)[C@@H](C)CC)C(C)C [Compound 17] (HELM PEPTIDE1{[CCCCCCCCCCCCCCCC(=O)[*:2]].D.V.F.Q.S.E.[dK].R.R.S.A.D.Q.F.I.[am]}$$$$V2.0) | 1% | ≥ 80% | ≤ 25 nM | 24 nM | 111% | ***** (EC50≦25 nM (hAPJ), % IA≧80% and either % histamine≦35% or formal (+) charge≦1) | inhibited
3 | CCCCCCCCCCCCCCCC(=O)N[C@H](C(=O)N[C@H](C(=O)N[C@@H](Cc1ccccc1)C(=O)N[C@@H](CCCNC(=N)N)C(=O)N[C@@H](CO)C(=O)N1CCC[C@H]1C(=O)N[C@@H](CO)C(=O)N[C@@H](CCC(=O)O)C(=O)N[C@H](CCCCN)C(=O)N[C@@H](CCCNC(=N)N)C(=O)N[C@@H](CCCNC(=N)N)C(=O)N1CCC[C@H]1C(=O)N[C@@H](CO)C(=O)N[C@@H](C)C(=O)N[C@@H](CC(=O)O)C(=O)N[C@H](C(=O)N[C@@H](Cc1ccccc1)C(N)=O)[C@@H](C)CC)C(C)C)[C@@H](C)O [Compound 22] (HELM PEPTIDE1{[CCCCCCCCCCCCCCCC(=O)[*:2]].T.V.F.R.S.P.S.E.[dK].R.R.P.S.A.D.I.F.[am]}$$$$V2.0) | 60% |  |  | 17 nM | 47% | * (EC50≦50 nM (hAPJ), % IA<50%) | 
4 | CCCCCCCCCCCCCCCC(=O)N[C@H](C(=O)N[C@H](C(=O)N[C@@H](Cc1ccccc1)C(=O)N[C@@H](CCCNC(=N)N)C(=O)N[C@@H](CO)C(=O)N[C@@H](CO)C(=O)N1CCC[C@H]1C(=O)N[C@@H](CCC(=O)O)C(=O)N[C@H](CCCCN)C(=O)N[C@@H](CCCNC(=N)N)C(=O)N[C@@H](CCCNC(=N)N)C(=O)N[C@@H](CO)C(=O)N1CCC[C@H]1C(=O)N[C@@H](C)C(=O)N[C@@H](CC(=O)O)C(=O)N[C@H](C(=O)N[C@@H](Cc1ccccc1)C(N)=O)[C@@H](C)CC)C(C)C)[C@@H](C)O [Compound 23] (HELM PEPTIDE1{[CCCCCCCCCCCCCCCC(=O)[*:2]].T.V.F.R.S.S.P.E.[dK].R.R.S.P.A.D.I.F.[am]}$$$$V2.0) | 67% |  |  | 44 nM | 63% | ** (EC50 25-50 nM (hAPJ), % IA 50-79% and either % histamine>35% or formal (+) charge>1) | 
5 | CCCCCCCCCCCCCCCC(=O)N[C@H](C(=O)N[C@H](C(=O)N[C@@H](Cc1ccccc1)C(=O)N[C@@H](CCCNC(=N)N)C(=O)N[C@@H](CO)C(=O)N[C@@H](CO)C(=O)N[C@@H](CCC(=O)O)C(=O)N[C@H](CCCCN)C(=O)N[C@@H](CCCNC(=N)N)C(=O)N[C@@H](CCCNC(=N)N)C(=O)N1CCC[C@H]1C(=O)N[C@@H](CO)C(=O)N[C@@H](C)C(=O)N[C@@H](CC(=O)O)C(=O)N[C@H](C(=O)N[C@@H](Cc1ccccc1)C(=O)N1CCC[C@H]1C(N)=O)[C@@H](C)CC)C(C)C)[C@@H](C)O [Compound 24] (HELM PEPTIDE1{[CCCCCCCCCCCCCCCC(=O)[*:2]].T.V.F.R.S.S.E.[dK].R.R.P.S.A.D.I.F.P.[am]}$$$$V2.0) | 54% | ≥ 80% | ≤ 25 nM | 13 nM | 88% | **** (EC50≦25 nM (hAPJ), % IA≧80% and either % histamine>35% or formal (+) charge>1) | inhibited
6 | CCCCCCCCCCCCCCCC(=O)N1CCC[C@@H]1C(=O)N[C@H](C(=O)N[C@H](C(=O)N[C@@H](Cc1ccccc1)C(=O)N[C@@H](CCCNC(=N)N)C(=O)N[C@@H](CO)C(=O)N1CCC[C@@H]1C(=O)N[C@@H](CO)C(=O)N[C@@H](CCC(=O)O)C(=O)N[C@H](CCCCN)C(=O)N[C@@H](CCCNC(=N)N)C(=O)N[C@@H](CCCNC(=N)N)C(=O)N[C@@H](CO)C(=O)N[C@@H](C)C(=O)N[C@@H](CC(=O)O)C(=O)N[C@H](C(=O)N[C@@H](Cc1ccccc1)C(N)=O)[C@@H](C)CC)C(C)C)[C@@H](C)O [Compound 29, pTVFRSpSEkRRSADIF] (HELM PEPTIDE1{[CCCCCCCCCCCCCCCC(=O)[*:2]].[dP].T.V.F.R.S.[dP].S.E.[dK].R.R.S.A.D.I.F.[am]}$$$$V2.0) | 47% | ≥ 80% | ≤ 25 nM | 20 nM | 80% | **** (EC50≦25 nM (hAPJ), % IA≧80% and either % histamine>35% or formal (+) charge>1) | inhibited
7 | CCCCCCCCCCCCCCCC(=O)N1CCC[C@H]1C(=O)N[C@H](CCCCN)C(=O)N[C@@H](CCCNC(=N)N)C(=O)N[C@@H](CCCNC(=N)N)C(=O)N[C@@H](CO)C(=O)N[C@@H](C)C(=O)N[C@@H](CC(=O)O)C(=O)N[C@H](C(=O)N[C@@H](Cc1ccccc1)C(=O)N[C@H](C(=O)N1CCC[C@H]1C(N)=O)[C@@H](C)CC)[C@@H](C)CC [Compound 30] (HELM PEPTIDE1{[CCCCCCCCCCCCCCCC(=O)[*:2]].P.[dK].R.R.S.A.D.I.F.I.P.[am]}$$$$V2.0) | 34% | ≥ 80% | ≤ 25 nM | 16 nM | 86% | ***** (EC50≦25 nM (hAPJ), % IA≧80% and either % histamine≦35% or formal (+) charge≦1) | inhibited
